According to the supplement of paper PMC10307832:

How the values were obtained:
Experiment in all cases: relative viability (nuclei count vs DMSO), 5 days (fraction); higher = more cells survive
NCI-H460 = tested on: NCI-H460
How it was run: (§1)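 Nuclei were stained with Hoechst during a one-step fixation (final 0.05% Triton X-100, 1% formaldehyde, 1 ug/ml Hoechst) carried out 5 days after dosing, then counted on 4× images. The cells, lung cancer lines in 1536-well plates, had been dosed by pin tool the day after seeding with one drug alone or a fixed anchor-drug dose plus five library-drug doses (not always all listed) in √10 steps. Relative viability is the nuclei count in treated wells divided by that in vehicle wells, and each value is the median of duplicate plates.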

NCI-H3122 = tested on: NCI-H3122
How it was run: as §1

NCI-H1915 = tested on: NCI-H1915
How it was run: as §1

NCI-H520 = tested on: NCI-H520
How it was run: as §1

RERF-LC-KJ = tested on: RERF-LC-KJ
How it was run: as §1

LCLC-103H = tested on: LCLC-103H
How it was run: as §1

NCI-H1355 = tested on: NCI-H1355
How it was run: as §1

NCI-H661 = tested on: NCI-H661
How it was run: as §1

PC-14 = tested on: PC-14
How it was run: as §1

NCI-H1563 = tested on: NCI-H1563
How it was run: as §1

LXF-289 = tested on: LXF-289
How it was run: as §1

NCI-H1651 = tested on: NCI-H1651
How it was run: as §1

NCI-H2347 = tested on: NCI-H2347
How it was run: as §1

NCI-H1792 = tested on: NCI-H1792
How it was run: as §1

NCI-H727 = tested on: NCI-H727
How it was run: as §1

NCI-H596 = tested on: NCI-H596
How it was run: as §1

NCI-H322M = tested on: NCI-H322M
How it was run: as §1

NCI-H441 = tested on: NCI-H441
How it was run: as §1

NCI-H1755 = tested on: NCI-H1755
How it was run: as §1

`O=c1cc(-c2cccc3c2Sc2ccccc2S3)oc(N2CCOCC2)c1` + CC(C)C[C@H](NC(=O)[C@H](Cc1ccccc1)NC(=O)c1cnccn1)B(O)O [Bortezomib] (partner 0.002 µM) gave a relative viability (NCI-H460; first compound 0.08 µM) of 1.36, a relative viability (NCI-H460; first compound 0.8 µM) of 1.12 and a relative viability (NCI-H460; first compound 2.53 µM) of 1.02. The relative viability (NCI-H460; first compound 8 µM) was 1.87, the relative viability (NCI-H3122; first compound 0.08 µM) was 1.05 and the relative viability (NCI-H3122; first compound 0.253 µM) was 1.15. It also gave a relative viability (NCI-H3122; first compound 0.8 µM) of 1.08, a relative viability (NCI-H3122; first compound 2.53 µM) of 1 and a relative viability (NCI-H3122; first compound 8 µM) of 1.12. The relative viability (NCI-H1915; first compound 0.08 µM) was 1.07, the relative viability (NCI-H1915; first compound 0.253 µM) was 1.03 and the relative viability (NCI-H1915; first compound 0.8 µM) was 1.09. For the same compound, the relative viability (NCI-H1915; first compound 2.53 µM) was 0.974, the relative viability (NCI-H1915; first compound 8 µM) was 1.16 and the relative viability (NCI-H520; first compound 0.08 µM) was 0.679. It also gave a relative viability (NCI-H520; first compound 0.253 µM) of 0.619, a relative viability (NCI-H520; first compound 0.8 µM) of 0.732 and a relative viability (NCI-H520; first compound 2.53 µM) of 0.507. It also gave a relative viability (NCI-H520; first compound 8 µM) of 0.604, a relative viability (RERF-LC-KJ; first compound 0.08 µM) of 1.04 and a relative viability (RERF-LC-KJ; first compound 0.253 µM) of 1.36. The relative viability (RERF-LC-KJ; first compound 0.8 µM) was 1.22, the relative viability (RERF-LC-KJ; first compound 2.53 µM) was 1.09 and the relative viability (RERF-LC-KJ; first compound 8 µM) was 1.02. The relative viability (LCLC-103H; first compound 0.08 µM) was 1.16, the relative viability (LCLC-103H; first compound 0.253 µM) was 1.18 and the relative viability (LCLC-103H; first compound 0.8 µM) was 1.08. The relative viability (LCLC-103H; first compound 2.53 µM) was 1.14, the relative viability (LCLC-103H; first compound 8 µM) was 1.37 and the relative viability (NCI-H1355; first compound 0.08 µM) was 1.25. It also gave a relative viability (NCI-H1355; first compound 0.253 µM) of 1.35, a relative viability (NCI-H1355; first compound 0.8 µM) of 1.22 and a relative viability (NCI-H1355; first compound 2.53 µM) of 1.16. For the same compound, the relative viability (NCI-H1355; first compound 8 µM) was 1.3, the relative viability (NCI-H661; first compound 0.08 µM) was 0.808 and the relative viability (NCI-H661; first compound 0.253 µM) was 0.935. It also gave a relative viability (NCI-H661; first compound 0.8 µM) of 0.837, a relative viability (NCI-H661; first compound 2.53 µM) of 0.798 and a relative viability (NCI-H661; first compound 8 µM) of 0.912. It also gave a relative viability (PC-14; first compound 0.08 µM) of 1.08, a relative viability (PC-14; first compound 0.253 µM) of 1.01 and a relative viability (PC-14; first compound 0.8 µM) of 0.962. For the same compound, the relative viability (PC-14; first compound 2.53 µM) was 0.866, the relative viability (PC-14; first compound 8 µM) was 0.882 and the relative viability (NCI-H1563; first compound 0.08 µM) was 0.773. For the same compound, the relative viability (NCI-H1563; first compound 0.253 µM) was 0.857, the relative viability (NCI-H1563; first compound 0.8 µM) was 0.767 and the relative viability (NCI-H1563; first compound 2.53 µM) was 0.92. The relative viability (NCI-H1563; first compound 8 µM) was 0.83, the relative viability (LXF-289; first compound 0.08 µM) was 0.994 and the relative viability (LXF-289; first compound 0.253 µM) was 0.976. The relative viability (LXF-289; first compound 0.8 µM) was 1.08, the relative viability (LXF-289; first compound 2.53 µM) was 0.988 and the relative viability (LXF-289; first compound 8 µM) was 1.03. The relative viability (NCI-H1651; first compound 0.08 µM) was 0.925, the relative viability (NCI-H1651; first compound 0.253 µM) was 1.08 and the relative viability (NCI-H1651; first compound 0.8 µM) was 0.935. The relative viability (NCI-H1651; first compound 2.53 µM) was 0.906, the relative viability (NCI-H1651; first compound 8 µM) was 0.964 and the relative viability (NCI-H2347; first compound 0.08 µM) was 0.947. The relative viability (NCI-H2347; first compound 0.253 µM) was 1.17, the relative viability (NCI-H2347; first compound 0.8 µM) was 1.09 and the relative viability (NCI-H2347; first compound 2.53 µM) was 0.902. For the same compound, the relative viability (NCI-H2347; first compound 8 µM) was 1.73, the relative viability (NCI-H1792; first compound 0.253 µM) was 1.4 and the relative viability (NCI-H1792; first compound 0.8 µM) was 1.05. It also gave a relative viability (NCI-H1792; first compound 2.53 µM) of 0.904, a relative viability (NCI-H1792; first compound 8 µM) of 1.27 and a relative viability (NCI-H727; first compound 0.253 µM) of 1.1. The relative viability (NCI-H727; first compound 2.53 µM) was 0.66, the relative viability (NCI-H727; first compound 8 µM) was 0.972 and the relative viability (NCI-H596; first compound 0.08 µM) was 0.985. It also gave a relative viability (NCI-H596; first compound 0.253 µM) of 1.18, a relative viability (NCI-H596; first compound 0.8 µM) of 0.959 and a relative viability (NCI-H596; first compound 2.53 µM) of 0.745. It also gave a relative viability (NCI-H596; first compound 8 µM) of 1.14, a relative viability (NCI-H322M; first compound 0.08 µM) of 1.21 and a relative viability (NCI-H322M; first compound 0.253 µM) of 1.21. For the same compound, the relative viability (NCI-H322M; first compound 0.8 µM) was 1.2, the relative viability (NCI-H322M; first compound 2.53 µM) was 1.04 and the relative viability (NCI-H322M; first compound 8 µM) was 1.17. For the same compound, the relative viability (NCI-H441; first compound 0.08 µM) was 0.488, the relative viability (NCI-H441; first compound 0.253 µM) was 1.25 and the relative viability (NCI-H441; first compound 0.8 µM) was 0.98. For the same compound, the relative viability (NCI-H441; first compound 2.53 µM) was 0.45, the relative viability (NCI-H441; first compound 8 µM) was 0.594 and the relative viability (NCI-H1755; first compound 0.08 µM) was 0.973. For the same compound, the relative viability (NCI-H1755; first compound 0.253 µM) was 1.09, the relative viability (NCI-H1755; first compound 0.8 µM) was 1.01 and the relative viability (NCI-H1755; first compound 2.53 µM) was 1.01. It also gave a relative viability (NCI-H1755; first compound 8 µM) of 0.941.
